In EP3570868B1, “[…] ANTIMICROBIAL PEPTIDES AND THEIR APPLICATIONS FOR THE TREATMENT AND PREVENTION OF MUSCU[…]” (Ustav Organicke Chemie a Biochemie AV CR, v.v.i., priority 2017, dated 2018):
Square brackets hold non-standard residues; d marks the D form. Peptide text beside a SMILES is read from it. βAla = NCCC(=O)O

Experiments:
MRSA 6271 [1] = experiment: Biofilm formation on the surface of a bone cement implant in femur heads; format: cell-based, Staphylococcus aureus; conditions: two days
Experimental: (§6) The resulting elastic paste is placed into a 2 ml plastic syringe (without needle) and pressed into the infected holes in the spongy part of the bone, where it polymerizes and hardens. For comparison, other similarly infected holes are filled with cement containing only an antibiotic or antimycotic agent. For comparison, a Vancogenx® cement (Tecresa S. p. A., Italy) is used, made from a mixture of a powdered polymer component containing vancomycin and gentamicin. The mixture in an amount of 125 mg is mixed with liquid monomer (50-60 µl) and then pressed into the openings as described above. In another embodiment, the cements are applied to uninfected holes, allowed to harden, and then microbes are pipetted into the hole excavated between implants. From there they penetrate through bone tissue and settle on the implants with consequent formation of biofilms.
(§7) After two days, implants are removed with metal spikes and tweezers, mechanically cleaned from debris of bone tissue, and washed four times with physiological saline (0.5 ml) in plastic tubes to remove any residual planktonic microbes or bone cells from their surface. The implants in closed tubes with 0.4 ml saline are then sonicated four times for 3 min with occasional shaking. The of microbial biofilm on the surface of the implant is thus disrupted and microbes are loosed into the physiological saline. The resulting suspension is subsequently diluted using the tenfold serial dilution for culturing on agar.
(§8) Evaluation of the effect of antimicrobial peptides on the formation of microbial biofilm on the surface of the implant made of the bone cement.

[2] = test system: P.a. (clin. isolate Liberec); format: cell-based, Pseudomonas aeruginosa; conditions: 37° C for 20 h
Experimental: (§1) Gram-positive bacteria (Bacillus subtilis, Staphylococcus aureus, Staphylococcus epidermidis and Enterococcus faecalis), Gram-negative bacteria (Escherichia coli and Pseudomonas aeruginosa) and the yeast (Candida albicans) were grown to exponential phase and then were diluted with fresh medium. BHI medium (Oxoid, Great Britain) was used for Enterococcus faecalis; YPD medium containing yeast extract, peptone and glucose was used for Candida albicans and LB medium (Sigma, Czech Republic) was used for the remaining microorganisms. Then the microorganisms were added to the solutions of the tested antimicrobial peptides in LB medium in multi-well plates, so that the final peptide concentration it the wells was in the range of 0.5 to 100 µmοl.1^-1. The plates were incubated at 37° C for 20 h while being continuously shaken in a Bioscreen C (Oy Growth Curves AB Ltd., Helsinki, Finland). Absorbance was measured at 540 nm every 15 min. Antimicrobial activity (Table 2) was determined as a quantitative minimum inhibitory concentration (MIC) by observing bacterial growth in the presence of different concentrations of tested peptides. In the experiments, ca 10^5 CFU of bacteria or candida per well were used. Tetracycline in a concentration range of 0.5 - 100 µmol.1^-1 was used as a standard.
(§2) Clinical isolates of bacteria were obtained from University Hospital in Motol, Prague, Czech Republic and from Liberec Regional Hospital, Czech Republic. Methicillin resistant Staphylococcus aureus (MRSA) 6271 and Pseudomonas aeruginosa 5482 were from the Czech National Collection of Type Cultures, the National Institute of Public Health, Prague, Czech Republic. Other bacteria were from the Czech Collection of Microorganisms, Brno, Czech Republic. Candida albicans came from the Faculty of Medicine, Palacky University, Olomouc, Czech Republic. Candida tropicalis ATCC 750 and Candida glabrata DSY 565 were obtained from the Institute of Physiology, Academy of Sciences of the Czech Republic.

P.a. 5482 = format: cell-based, Pseudomonas aeruginosa; conditions: 37° C for 20 h
Experimental: as §1, §2

[3] = test system: Enterococcus faecalis (clin. isolate Motol); experiment: Biofilm formation on the surface of a bone cement implant in femur heads; format: cell-based; conditions: two days
Experimental: as §6
(§9) After two days, implants are removed with metal spikes and tweezers, mechanically cleaned from debris of bone tissue, and washed four times with physiological saline (0.5 ml) in plastic tubes to remove any residual planktonic microbes or bone cells from their surface. The implants in closed tubes with 0.4 ml saline are then sonicated four times for 3 min with occasional shaking. The of microbial biofilm on the surface of the implant is thus disrupted and microbes are loosed into the physiological saline. […]

[4] = test system: Candida albicans (clin. isolate Olomouc); experiment: as above; format: cell-based; conditions: two days, cement without peptide 6.0x10^3
Experimental: as §6, §7, §8

human red blood cells = experiment: Determination of haemolytic activity; format: cell-based; conditions: human red blood cells (5% v/v), 1 h at 37 °C; concentration for lysis of 50% of erythrocytes
Experimental: The peptides in the concentrations 2-400 µmol.1^-1 were incubated with the suspension of human red blood cells (5% v/v) for 1 h at 37 °C in a physiological solution at a final volume of 0.2 ml. The samples were then centrifuged for 5 min at 250 g. The absorbance of the supernatant was determined at 540 nm. 0.2% (v/v) TRITON X100 was used as a control for 100% haemolysis. Haemolytic activity is expressed as the peptide concentration required for lysis of 50% of human erythrocytes in the assay (LC50). Table 2. Antimicrobial and haemolytic activity of I up to XIII peptides and tetracycline.

[5] = test system: P. aeruginosa (clin. isolate Liberec); experiment: Biofilm formation on the surface of a bone cement implant in femur heads; format: cell-based; conditions: two days, cement without peptide N/A
Experimental: (§10) The resulting elastic paste is placed into a 2 ml plastic syringe (without needle) and pressed into the infected holes in the spongy part of the bone, where it polymerizes and hardens. For comparison, other similarly infected holes are filled with cement containing only an antibiotic or antimycotic agent. […] The mixture in an amount of 125 mg is mixed with liquid monomer (50-60 µl) and then pressed into the openings as described above. In another embodiment, the cements are applied to uninfected holes, allowed to harden, and then microbes are pipetted into the hole excavated between implants. From there they penetrate through bone tissue and settle on the implants with consequent formation of biofilms.
(§11) After two days, implants are removed with metal spikes and tweezers, mechanically cleaned from debris of bone tissue, and washed four times with physiological saline (0.5 ml) in plastic tubes to remove any residual planktonic microbes or bone cells from their surface. The implants in closed tubes with 0.4 ml saline are then sonicated four times for 3 min with occasional shaking. The of microbial biofilm on the surface of the implant is thus disrupted and microbes are loosed into the physiological saline. The resulting suspension is subsequently diluted using the tenfold serial dilution for culturing on agar. […]

[6] = test system: Candida tropicalis ATCC 750; experiment: as above; format: cell-based; conditions: two days, cement without peptide 3.7x10^5
Experimental: as §10, §11

[7] = test system: S. epidermidis (clin. isolate Motol); experiment: Induced osteomyelitis model in femur heads: effect of peptides released from carrier on infection in the bone graft; format: cell-based; conditions: ChronOS (300 mg); 10 mg, separate holes; two days; carrier without peptide 1,2x10^5
Experimental: (§3) 3-4 holes of a diameter of 5 mm and a depth of 10 mm are drilled with a surgical spoon into a femur head under sterile conditions (spongy part of the bone in the resection site). Thereafter, this bone graft is put into a beaker of appropriate size and lined with sterile gauze squares. The gauze is moistened with sterile physiological saline to prevent drying of the bone. Then, suspension of multiplied microbes in an appropriate medium (50-100 µl) at a concentration of 10^7 to 10^9 CFU is sequentially applied to the prepared holes in the bone graft and allowed to incubate for 1-2 days. […] Beaker with the infected bone graft is covered with a sterile Petri dish. During the experiment, induced osteomyelitis models are kept protected from light at room temperature.
(§4) After the incubation, the infected holes in the bone are filled with a mixture of the local carrier, and a peptide selected from the series of peptides of formulae I to XIII or their specific enantiomers (Figure 1). For comparison, one of the holes is filled with the local carrier without peptide, or the carrier filled with antibiotic (vancomycin or gentamicin). A commercially available two-component material supplied by Synthes (Synthes GmbH, Switzerland) under the name ChronOS Inject was used as the carrier. Its solid component comprises a mixture of calcium phosphates CaHPO4.2H2O and Ca3(PO4)2 and additives, the liquid component is 0.5% (vol./vol.) solution of hyaluronic acid.
(§5) After two days, the filling is thoroughly removed with a surgical spoon and empty holes are wiped with moistened sterile cotton swab, which is then extracted into 400 µl physiological saline. The extract is diluted in a tenfold serial dilution and each diluted suspension is cultured on agar in Petri dishes; the culture is evaluated on the following day. […] The result of the peptide effect is also compared with the result of the effect of antibiotics. In some cases, microbiological examination of the bone tissue taken with a surgical spoon from a deeper area of the drilled holes is performed. […] Table 3. Evaluation of the effect of antimicrobial peptides released from the carrier on an infection in the bone graft. Effect of antimicrobial activity is expressed in the number of CFU (colony-forming units) in the infected hole after swabbing.

[8] = test system: MRSA (clin. isolate Liberec); format: cell-based, Staphylococcus aureus; conditions: 37° C for 20 h
Experimental: as §1, §2

MRSA 6271 [9] = format: cell-based, Staphylococcus aureus; conditions: 37° C for 20 h
Experimental: as §1, §2

[10] = test system: MRSA (clin. isolate Motol); format: cell-based, Staphylococcus aureus; conditions: 37° C for 20 h
Experimental: as §1, §2

P. aeruginosa 5482 [11] = experiment: Biofilm formation on the surface of a bone cement implant in femur heads; format: cell-based; conditions: two days
Experimental: as §10, §11

[12] = test system: MRSA (clin. isolate Liberec); experiment: Induced osteomyelitis model in femur heads: effect of peptides released from carrier on infection in the bone graft; format: cell-based, Staphylococcus aureus; conditions: ChronOS (200 mg); 10 mg, separate holes; two days; carrier without peptide 3,4x10^7
Experimental: as §3, §4, §5

MRSA 6271 [13] = experiment: as above; format: cell-based, Staphylococcus aureus; conditions: ChronOS (200 mg), two days, carrier without peptide 7,0x10^7
Experimental: as §3, §4, §5

Candida albicans = format: cell-based; conditions: C.a.; 37° C for 20 h
Experimental: as §1, §2

Escherichia coli = format: cell-based; conditions: E.c.; 37° C for 20 h
Experimental: as §1, §2

Bacillus subtilis = format: cell-based; conditions: B.s.; 37° C for 20 h
Experimental: as §1, §2

[14] = test system: MRSA (clin. isolate Motol); experiment: Biofilm formation on the surface of a bone cement implant in femur heads; format: cell-based, Staphylococcus aureus; conditions: two days
Experimental: as §6, §9

[15] = test system: E.f. (clin. isolate Motol); format: cell-based, Enterococcus faecalis; conditions: 37° C for 20 h
Experimental: as §1, §2

[16] = test system: S.e. (clin. isolate Motol); format: cell-based, Staphylococcus epidermidis; conditions: 37° C for 20 h
Experimental: as §1, §2

[17] = test system: S. epidermidis (clin. isolate Motol); experiment: Biofilm formation on the surface of a bone cement implant in femur heads; format: cell-based; conditions: two days, cement without peptide 4.0x10^6
Experimental: as §10, §11

[18] = test system: MRSA (clin. isolate Liberec); experiment: as above; format: cell-based, Staphylococcus aureus; conditions: two days, cement without peptide 8,8x10^3
Experimental: as §6, §9

[19] = test system: S. aureus (clin. isolate Liberec); experiment: Induced osteomyelitis model in femur heads: effect of peptides released from carrier on infection in the bone graft; format: cell-based; conditions: ChronOS (200 mg); 10 mg, separate holes; two days; carrier without peptide 3,9x10^6
Experimental: as §3, §4, §5

P. aeruginosa 5482 [20] = experiment: as above; format: cell-based; conditions: ChronOS (200 mg); V (9 mg); two days; carrier without peptide 1,0x10^9
Experimental: as §3, §4, §5

[21] = test system: MRSA (clin. isolate Motol); experiment: as above; format: cell-based, Staphylococcus aureus; conditions: ChronOS (200 mg); 10 mg; two days; carrier without peptide 4,8x10^6
Experimental: as §3, §4, §5

[22] = cement without peptide 2.8x10^6

SMILES	Antimicrobial activity MIC [2]	Antimicrobial activity MIC (P.a. 5482)	CFU/implant [4]	Hemolytic activity LC50 (human red blood cells)	Antimicrobial activity MIC [8]	Antimicrobial activity MIC (MRSA 6271 [9])	Antimicrobial activity MIC [10]	CFU/hole [12]	Antimicrobial activity MIC (Candida albicans)	Antimicrobial activity MIC (Escherichia coli)	Antimicrobial activity MIC (Bacillus subtilis)	Antimicrobial activity MIC [15]	Antimicrobial activity MIC [16]	other results
CC[C@H](C)[C@H](NC(=O)[C@H](CCCCN)NC(=O)[C@H](CCCCN)NC(=O)[C@H](CC(C)C)NC(=O)[C@H](CC(C)C)NC(=O)[C@H](CCCCN)NC(=O)[C@H](CCSC)NC(=O)[C@H](Cc1c[nH]c2ccccc12)NC(=O)[C@H](CCCCN)NC(=O)CN)C(=O)N[C@@H](CC(C)C)C(=O)N[C@@H](CCCCN)C(N)=O [III]	10,0 µmol.l^-1	2,8 µmol.l^-1	2 CFU/implant	339 µM	3,6 µmol.l^-1	6,3 µmol.l^-1	5,7 µmol.l^-1	2,3x10^5 / 2,3x10^5 CFU/hole	5,7 µmol.l^-1	9,0 µmol.l^-1	1,8 µmol.l^-1	13,3 µmol.l^-1	2,3 µmol.l^-1	CFU/implant (MRSA 6271 [1]; cement without peptide N/A, first experiment with III): 5.1 x 10^3 CFU/implant; CFU/implant (MRSA 6271 [1]; cement without peptide N/A, second experiment with III): 0 CFU/implant; CFU/implant [3, 22]: 0 CFU/implant; CFU/implant ([3]; cement without peptide 2.9x10^5): 0 CFU/implant; CFU/implant [5]: 1.1x10^3 CFU/implant; CFU/implant [6]: 0 CFU/implant; CFU/hole [7]: 0 in all cases CFU/hole; CFU/implant (P. aeruginosa 5482 [11]; [22]): 2.6x10^1 CFU/implant; CFU/hole (MRSA 6271 [13]; III (5 mg)): 1,9x10^2 CFU/hole; CFU/hole (MRSA 6271 [13]; III (10 mg)): 7,6x10^2 CFU/hole; CFU/implant ([14]; cement without peptide 3,4x10^5): 0 CFU/implant
CC[C@H](C)[C@H](NC(=O)[C@H](CCCCN)NC(=O)[C@H](CCCCN)NC(=O)[C@H](CC(C)C)NC(=O)[C@H](CC(C)C)NC(=O)[C@H](CCCCN)NC(=O)[C@H](CCSC)NC(=O)[C@H](Cc1c[nH]c2ccccc12)NC(=O)[C@@H](N)CCCCN)C(=O)N[C@@H](CC(C)C)C(=O)N[C@@H](CCCCN)C(N)=O [I] (H-KWMKLLKKILK-NH2)	5,8 µmol.l^-1	2,9 µmol.l^-1	6.8x10^1 CFU/implant	>400 µM	8,0 µmol.l^-1	13,5 µmol.l^-1	17,7 µmol.l^-1	2,3x10^5 / 2,3x10^5 CFU/hole	9,5 µmol.l^-1	12,7 µmol.l^-1	2,3 µmol.l^-1	>100 µmol/L	3,2 µmol.l^-1	CFU/implant [17]: 1,1x10^3 CFU/implant; CFU/implant (MRSA 6271 [1]; cement without peptide 1.1x10^6): 0 CFU/implant; CFU/implant [18]: 0 CFU/implant; CFU/hole [19]: 1,3x10^4 CFU/hole; CFU/implant (P. aeruginosa 5482 [11]; cement without peptide 6x10^5): 7.0x10^2 CFU/implant; CFU/implant ([14]; cement without peptide 2,6x10^6): 0 CFU/implant
CC[C@H](C)[C@H](NC(=O)[C@H](CCCCN)NC(=O)[C@H](CCCCN)NC(=O)[C@H](CC(C)C)NC(=O)[C@H](CC(C)C)NC(=O)[C@H](CCCCN)NC(=O)[C@H](CCSC)NC(=O)[C@H](Cc1c[nH]c2ccccc12)NC(=O)[C@H](CCCCN)NC(=O)CCN)C(=O)N[C@@H](CC(C)C)C(=O)N[C@@H](CCCCN)C(N)=O [Peptide V] (H-[βAla]KWMKLLKKILK-NH2)	7,0 µmol.l^-1	2,8 µmol.l^-1		270 µM	5,7 µmol.l^-1	11,3 µmol.l^-1	10,0 µmol.l^-1		11,3 µmol.l^-1	6,8 µmol.l^-1	1,8 µmol.l^-1	59,0 µmol.l^-1	2,8 µmol.l^-1	CFU/hole (P. aeruginosa 5482 [20]): 2,0x10^5 CFU/hole; CFU/hole [21]: 4,0 CFU/hole
